Activity calls are given as the source filed them.
Columns and labels:
[1] = inhibitors of firefly luciferase expression or activity, dose response, H4 neuroglioma cells, luminescence (AID 1990); type: functional, cell-based
[2] = Luminescence Cell-Based Dose Response HTS to Identify Inhibitors of 5'UTR Stem-Loop Driven Prion Protein mRNA Translation in H4 Neuroglioblastoma Cells. [Related pubchem assays: 1827 (Project Summary), 1813 (Primary HTS)]; type: functional
[3] = inhibitors of SNCA 5'UTR-driven reporter translation, confirmation, H4 neuroglioma cells, luminescence (AID 1988); type: functional, cell-based
[4] = target: T1, Corticotropin-releasing factor receptor 2/Corticotropin-releasing factor-binding protein (Homo sapiens, UniProt P24387+Q13324); assay: Dose Response confirmation of uHTS hits for small molecule antagonists of the CRF-binding protein and CRF-R2 receptor complex.; type: functional; details: read-out: IC50_Mean
T1 sequence (Q13324 whole entry): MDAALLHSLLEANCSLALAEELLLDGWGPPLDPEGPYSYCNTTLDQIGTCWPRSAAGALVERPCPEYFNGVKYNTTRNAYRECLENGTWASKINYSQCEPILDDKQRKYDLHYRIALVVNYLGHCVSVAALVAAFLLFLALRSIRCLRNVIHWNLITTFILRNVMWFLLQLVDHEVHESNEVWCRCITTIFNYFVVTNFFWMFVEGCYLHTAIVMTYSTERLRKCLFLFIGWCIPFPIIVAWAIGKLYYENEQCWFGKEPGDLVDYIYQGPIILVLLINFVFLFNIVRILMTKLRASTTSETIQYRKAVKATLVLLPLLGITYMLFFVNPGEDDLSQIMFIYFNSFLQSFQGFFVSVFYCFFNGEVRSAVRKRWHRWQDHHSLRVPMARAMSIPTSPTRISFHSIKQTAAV
T1 sequence (P24387 whole entry): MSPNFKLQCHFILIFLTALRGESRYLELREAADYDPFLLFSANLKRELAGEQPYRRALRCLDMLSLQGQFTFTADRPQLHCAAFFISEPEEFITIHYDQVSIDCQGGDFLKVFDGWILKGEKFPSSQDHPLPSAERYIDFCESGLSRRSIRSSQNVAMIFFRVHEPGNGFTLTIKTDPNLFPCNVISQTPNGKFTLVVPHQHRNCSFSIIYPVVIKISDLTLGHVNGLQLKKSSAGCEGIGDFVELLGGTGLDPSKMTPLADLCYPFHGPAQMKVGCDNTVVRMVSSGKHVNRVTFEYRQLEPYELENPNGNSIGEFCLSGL

[5] = target: T1, Corticotropin-releasing factor receptor 2/Corticotropin-releasing factor-binding protein; assay: activators of CRF receptor 2 with binding protein – uHTS hits, confirmation (AID 602473); type: functional; details: read-out: EC50_Mean
[6] = growth suppression of PTEN-null colon cells, dose response, cell-based, HCT116 PTEN knockout (AID 1047); type: functional;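 further: HCT116 colon tumor cells with PTEN knocked out; cells exposed to compound for 60 hours before readout; potency for loss of cell viability measured by luminescence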
[7] = growth suppression of beta-catenin-knockout colon cells, dose response, cell-based, HCT116, human colon tumor (AID 1045); type: functional;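 further: HCT116 colon tumor cells with beta catenin knocked out; cells exposed to compound for 60 hours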
INS1 = assay: beta cell apoptosis inhibitors, cytokine rescue, dose response, luminescence, retest (AID 449756); type: functional, cell-based; details: Rattus norvegicus;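 further: cell death triggered by IL-1 beta plus TNF-alpha plus IFN-gamma mixture; protective hits raise ATP signal compared with cytokine alone wells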
Vero = assay: cells; type: functional; details: Chlorocebus sabaeus
[8] = target: T2, Polyadenylate-binding protein 1 (Homo sapiens, UniProt P11940); assay: PABP1 MLLE–PAM2 interaction inhibitors, dose response, miRNA deadenylation inhibitor project, biochemical, fluorescence polarization, Cy5-PAM2 peptide, secondary (AID 602260); type: functional; details: read-out: IC50_Mean
[9] = target: T2, Polyadenylate-binding protein 1; assay: PABP1 MLLE–PAM2 binding inhibitor potency, dose response, biochemical, fluorescence polarization, FITC-PAM2 peptide (AID 602259); type: functional; details: read-out: IC50_Mean
Cytochrome P450 2C9 = Cytochrome P450 2C9 (Homo sapiens, UniProt P11712)
[10] = tested on: Streptococcus sp. 'group A'; assay: growth inhibition of control SK(-) GAS strain, dose response, counter-screen for streptokinase expression inhibitor project, luminescence, kanamycin, BacTiterGlo, confirmation (AID 1900); type: functional, organism-based
Streptokinase A = target: T3, Streptokinase A (Streptococcus pyogenes serotype M1, UniProt P10520); assay: S. pyogenes streptokinase expression inhibitors, potency, dose response, plasminogen activation absorbance, OD405 (AID 1914); type: functional, Streptococcus pyogenes M1 GAS;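 further: secreted streptokinase activity via plasminogen activation per viability signal from cell pellet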
T3 sequence (P10520 whole entry): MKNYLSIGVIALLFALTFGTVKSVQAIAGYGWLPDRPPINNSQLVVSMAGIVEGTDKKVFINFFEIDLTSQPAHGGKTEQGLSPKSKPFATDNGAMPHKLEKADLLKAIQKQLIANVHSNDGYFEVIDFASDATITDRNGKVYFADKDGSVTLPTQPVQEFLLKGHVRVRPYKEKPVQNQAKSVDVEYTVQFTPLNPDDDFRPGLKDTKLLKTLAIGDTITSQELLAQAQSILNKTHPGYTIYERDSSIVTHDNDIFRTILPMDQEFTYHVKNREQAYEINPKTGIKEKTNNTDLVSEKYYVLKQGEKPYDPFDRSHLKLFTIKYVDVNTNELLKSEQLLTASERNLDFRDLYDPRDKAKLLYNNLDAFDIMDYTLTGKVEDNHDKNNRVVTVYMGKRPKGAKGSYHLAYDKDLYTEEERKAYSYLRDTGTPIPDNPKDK

Streptococcus = assay: Group A Streptococcus viability loss, dose response, counter-screen for streptokinase expression inhibitor project, luminescence, BacTiterGlo (AID 1915); type: functional, organism-based;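 further: potency for reduction of bacterial viability or growth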
Cytochrome P450 2D6 = Cytochrome P450 2D6 (Homo sapiens, UniProt P10635);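 further: CYP2D6 member of a cytochrome P450 panel assay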
[11] = target: Luciferin 4-monooxygenase (Photinus pyralis, UniProt P08659); assay: firefly luciferase enzyme inhibitors, dose response, biochemical, luminescence (AID 1891)
[12] = Luminescence Cell-Based Dose Confirmation HTS to Identify Inhibitors of Platelet Dense Granule Release. [Related pubchem assays: 1663 (Primary HTS), 1678 (Summary of Project)]; type: functional
Cytochrome P450 2C19 = Cytochrome P450 2C19 (Homo sapiens, UniProt P33261); assay: Cytochrome panel assay with activity outcomes. Panel member name: p450-cyp2c19 Compounds with AC50 equal or less than 10 uM are considered active; type: functional
[13] = HEp-2 cell cytotoxicity, dose response, cytotoxicity control for RSV inhibitor project, HTS (AID 2410); type: functional; details: human respiratory syncytial virus
[14] = Shn3 3'UTR reporter inhibitors, dose response, cell-based, Clone20 osteoblasts, firefly luciferase, cherry-picked (AID 624132); type: functional;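 further: firefly luciferase luminescence from reporter carrying the Shn3 3'UTR in osteoblasts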
[15] = control 3'UTR Renilla luciferase suppression, dose response, counter-screen for Shn3 inhibitor project, cell-based, Clone20-Shn3RL, cherry-picked (AID 624133); type: functional
[16] = target: T4, Heat shock factor protein 1 (Mus musculus, UniProt P38532); assay: HSF1 potentiators in luciferase reporter cells, confirmation, cell-based, NIH3T3, luminescence, dose retest (AID 435004); type: functional;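 further: stress induced by proteasome inhibitor MG132 added 30 min after compound; luciferase reporter driven by HSF1 response element in NIH3T3 cells; actives raise luminescence as potentiators of the MG132 stress response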
T4 sequence (P38532 whole entry): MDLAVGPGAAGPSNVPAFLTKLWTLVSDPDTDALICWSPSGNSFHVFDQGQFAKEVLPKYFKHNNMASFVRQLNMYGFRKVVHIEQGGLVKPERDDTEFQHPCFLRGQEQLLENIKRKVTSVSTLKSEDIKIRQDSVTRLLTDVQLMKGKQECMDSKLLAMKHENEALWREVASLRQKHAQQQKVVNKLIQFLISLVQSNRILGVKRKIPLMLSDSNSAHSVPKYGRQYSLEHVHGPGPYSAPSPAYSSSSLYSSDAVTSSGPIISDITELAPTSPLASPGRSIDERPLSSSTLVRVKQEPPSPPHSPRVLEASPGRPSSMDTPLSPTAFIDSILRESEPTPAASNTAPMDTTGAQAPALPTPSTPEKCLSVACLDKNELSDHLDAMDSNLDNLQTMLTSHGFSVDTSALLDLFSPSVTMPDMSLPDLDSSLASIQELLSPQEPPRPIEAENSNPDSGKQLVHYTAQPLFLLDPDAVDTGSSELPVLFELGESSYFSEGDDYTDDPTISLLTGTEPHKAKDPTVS

Cytochrome P450 1A2 = target: T5, Cytochrome P450 1A2 (Homo sapiens, UniProt P05177);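 further: PubChem cytochrome P450 panel assay, CYP1A2 panel member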
T5 sequence (P05177 whole entry): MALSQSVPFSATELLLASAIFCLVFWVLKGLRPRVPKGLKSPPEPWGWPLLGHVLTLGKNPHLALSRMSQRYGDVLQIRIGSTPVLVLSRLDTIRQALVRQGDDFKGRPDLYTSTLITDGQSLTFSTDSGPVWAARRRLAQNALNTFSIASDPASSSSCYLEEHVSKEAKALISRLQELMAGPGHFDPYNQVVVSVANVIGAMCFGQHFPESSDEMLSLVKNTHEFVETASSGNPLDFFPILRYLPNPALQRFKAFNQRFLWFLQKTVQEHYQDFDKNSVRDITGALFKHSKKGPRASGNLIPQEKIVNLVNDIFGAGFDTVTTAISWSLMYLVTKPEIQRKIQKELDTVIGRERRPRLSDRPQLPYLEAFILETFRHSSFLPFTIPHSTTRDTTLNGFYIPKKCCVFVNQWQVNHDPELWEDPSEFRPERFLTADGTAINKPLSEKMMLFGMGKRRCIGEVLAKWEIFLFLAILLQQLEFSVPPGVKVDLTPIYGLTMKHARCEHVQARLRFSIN

Sequence of Cytochrome P450 2C19 (P33261 whole entry): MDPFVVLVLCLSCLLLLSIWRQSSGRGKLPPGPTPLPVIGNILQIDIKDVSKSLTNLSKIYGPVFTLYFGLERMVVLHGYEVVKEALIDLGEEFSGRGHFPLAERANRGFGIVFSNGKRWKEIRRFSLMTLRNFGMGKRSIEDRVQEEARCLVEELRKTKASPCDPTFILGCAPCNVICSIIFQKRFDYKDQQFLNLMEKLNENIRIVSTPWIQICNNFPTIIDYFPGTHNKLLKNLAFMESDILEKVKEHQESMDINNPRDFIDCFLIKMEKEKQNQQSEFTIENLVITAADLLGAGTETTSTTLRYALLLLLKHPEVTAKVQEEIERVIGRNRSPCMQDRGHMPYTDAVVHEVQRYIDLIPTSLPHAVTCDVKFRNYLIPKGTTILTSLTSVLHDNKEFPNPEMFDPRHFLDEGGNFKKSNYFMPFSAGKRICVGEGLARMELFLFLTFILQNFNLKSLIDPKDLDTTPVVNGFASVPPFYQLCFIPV
T2 sequence (P11940 whole entry): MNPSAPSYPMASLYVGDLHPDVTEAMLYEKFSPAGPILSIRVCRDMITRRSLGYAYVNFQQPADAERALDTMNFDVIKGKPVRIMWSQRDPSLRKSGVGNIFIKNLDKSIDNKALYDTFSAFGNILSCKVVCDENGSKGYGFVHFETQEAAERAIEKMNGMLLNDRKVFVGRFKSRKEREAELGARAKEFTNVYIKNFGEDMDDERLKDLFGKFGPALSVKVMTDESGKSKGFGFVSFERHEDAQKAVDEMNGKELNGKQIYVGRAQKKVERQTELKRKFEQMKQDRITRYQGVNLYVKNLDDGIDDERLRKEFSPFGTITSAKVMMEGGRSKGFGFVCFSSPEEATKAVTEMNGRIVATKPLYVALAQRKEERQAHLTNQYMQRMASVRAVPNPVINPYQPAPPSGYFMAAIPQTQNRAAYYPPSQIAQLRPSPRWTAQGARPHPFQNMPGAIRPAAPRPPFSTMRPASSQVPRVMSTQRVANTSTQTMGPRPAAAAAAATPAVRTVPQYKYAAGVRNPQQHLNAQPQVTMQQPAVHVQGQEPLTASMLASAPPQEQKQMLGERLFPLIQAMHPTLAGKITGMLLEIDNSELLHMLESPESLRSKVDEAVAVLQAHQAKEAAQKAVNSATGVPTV
Sequence of Cytochrome P450 2C9 (P11712 whole entry): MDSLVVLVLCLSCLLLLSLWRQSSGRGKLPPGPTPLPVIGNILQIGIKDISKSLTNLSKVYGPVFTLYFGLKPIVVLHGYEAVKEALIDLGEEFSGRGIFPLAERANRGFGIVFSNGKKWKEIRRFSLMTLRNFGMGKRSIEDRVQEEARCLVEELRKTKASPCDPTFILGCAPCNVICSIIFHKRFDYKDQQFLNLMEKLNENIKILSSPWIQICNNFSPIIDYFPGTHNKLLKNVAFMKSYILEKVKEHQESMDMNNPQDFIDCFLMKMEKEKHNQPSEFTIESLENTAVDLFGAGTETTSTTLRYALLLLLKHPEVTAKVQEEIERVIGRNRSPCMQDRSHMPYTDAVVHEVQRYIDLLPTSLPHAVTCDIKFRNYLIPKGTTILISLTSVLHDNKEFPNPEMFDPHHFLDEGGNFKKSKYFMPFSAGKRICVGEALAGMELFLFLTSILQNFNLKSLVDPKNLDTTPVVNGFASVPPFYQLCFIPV
Sequence of Cytochrome P450 2D6 (P10635 whole entry): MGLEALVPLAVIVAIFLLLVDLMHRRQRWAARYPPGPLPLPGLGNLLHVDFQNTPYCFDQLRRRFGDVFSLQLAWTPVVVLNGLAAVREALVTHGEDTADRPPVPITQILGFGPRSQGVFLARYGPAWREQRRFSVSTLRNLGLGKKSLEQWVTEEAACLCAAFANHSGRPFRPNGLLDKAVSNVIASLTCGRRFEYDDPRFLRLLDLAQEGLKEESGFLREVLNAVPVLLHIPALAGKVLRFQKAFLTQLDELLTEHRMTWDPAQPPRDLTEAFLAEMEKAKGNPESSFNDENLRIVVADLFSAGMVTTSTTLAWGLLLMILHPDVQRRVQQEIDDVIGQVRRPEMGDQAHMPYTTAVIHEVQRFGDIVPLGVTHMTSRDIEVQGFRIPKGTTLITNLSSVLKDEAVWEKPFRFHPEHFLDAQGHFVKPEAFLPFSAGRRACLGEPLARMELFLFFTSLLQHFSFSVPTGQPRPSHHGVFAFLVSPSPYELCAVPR
Sequence of Luciferin 4-monooxygenase (P08659 whole entry): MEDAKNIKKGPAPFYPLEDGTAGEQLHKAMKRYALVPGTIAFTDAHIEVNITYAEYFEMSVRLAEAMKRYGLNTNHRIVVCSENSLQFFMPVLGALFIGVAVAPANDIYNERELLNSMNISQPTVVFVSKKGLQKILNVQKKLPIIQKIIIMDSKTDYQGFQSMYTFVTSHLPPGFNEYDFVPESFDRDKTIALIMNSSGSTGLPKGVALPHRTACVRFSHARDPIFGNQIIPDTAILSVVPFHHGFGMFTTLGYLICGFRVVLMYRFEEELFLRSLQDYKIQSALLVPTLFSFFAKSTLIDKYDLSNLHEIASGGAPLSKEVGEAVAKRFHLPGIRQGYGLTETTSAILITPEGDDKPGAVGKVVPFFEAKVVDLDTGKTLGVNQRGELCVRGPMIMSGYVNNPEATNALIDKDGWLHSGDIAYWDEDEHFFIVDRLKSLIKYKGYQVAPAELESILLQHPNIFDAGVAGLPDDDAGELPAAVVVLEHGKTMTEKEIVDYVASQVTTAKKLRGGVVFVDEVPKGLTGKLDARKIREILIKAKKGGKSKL

## COCCn1c(SCC(=O)Nc2cccc(C(=O)OC)c2)nc2ccccc2c1=O
[1]
  EC50: 36.7 µM (active)
[2]
  EC50: > 120 µM (not active)
[3]
  EC50: 15.2 µM (active)
[4]
  IC50: > 47.1 µM (inactive)
[5]
  EC50: > 53 µM (inactive)

## O=C(c1cccc(Cl)c1)c1nn(-c2ccccc2)c(=O)cc1C(F)(F)F
[6]
  EC50: 10.6 µM (active)
[7]
  EC50: 12.3 µM (active)
INS1
  AC50: 23.8 µM (active)

## Cn1ncc2c(Nc3ccc(-c4ccccc4)cc3)ncnc21
Vero
  CC50: > 25 µM (active)

## Cc1ccccc1C(=O)Nc1ccc2c(C#N)c3nc4ccccc4nc3n2c1
[6]
  EC50: 6.62 µM (active)
[7]
  EC50: 5.34 µM (active)

## O=[N+]([O-])c1cccc(C(=S)N2CCN(c3ccccc3F)CC2)c1
[8]
  IC50: > 66 µM (inactive)
[9]
  IC50: > 66 µM (inactive)

## CC(C)(C)n1nc2c(c1NC(=O)c1cc3ccccc3o1)CSC2
[8]
  IC50: > 66 µM (inactive)
[9]
  IC50: > 66 µM (inactive)

## COc1ccccc1COC(=O)Nc1c(C)nn(C)c1Cl
Cytochrome P450 2C9
  AC50: inconclusive

## CCc1c(C)sc(NC(=O)c2ccco2)c1C(=O)N1CCOCC1
[8]
  IC50: > 66 µM (inactive)
[9]
  IC50: > 66 µM (inactive)

## O=C(C[n+]1nc(CNc2ccc(Cl)cc2)n2c1CCCCC2)c1ccc(Br)cc1
[10]
  EC50: 5.64 µM (active)
Streptokinase A
  EC50: 12.5 µM (active)
Streptococcus
  EC50: 84.2 µM (active)
[4]
  IC50: > 47.1 µM (inactive)
[5]
  EC50: > 53 µM (inactive)

## O=C1c2cccc3c(Cl)ccc(c23)C(=O)N1O
Cytochrome P450 2C9
  AC50: inconclusive

## COc1ccc(O)c(C(=O)CC(=O)c2ccccc2C)c1
[10]
  EC50: 6.85 µM (active)
Streptokinase A
  EC50: > 150 µM (not active)
Streptococcus
  EC50: 49.1 µM (active)
Vero
  CC50: 20.4 µM (active)

## Cn1c(Cc2cccc3ccccc23)nnc1SCC(=O)N1CCN(c2ccccc2)CC1
Cytochrome P450 2C9
  AC50: inconclusive

## O=C(NC(=S)Nc1ccc2c(c1)OCCO2)c1ccccc1
[8]
  IC50: > 66 µM (inactive)
[9]
  IC50: > 66 µM (inactive)

## C/C(C[n+]1ccccc1)=N\N=C(N)N
Cytochrome P450 2C9
  AC50: inconclusive

## COc1cc(C(=O)NCc2cccc3ccccc23)cc(Cl)c1OC
Cytochrome P450 2D6
  AC50: 15.8 µM (inconclusive)
Cytochrome P450 2C9
  AC50: inconclusive

## COCCCNC(=O)Cn1nc(-c2ccccc2OC)ccc1=O
[11]
  EC50: > 112 µM (not active)
[12]
  EC50: > 112 µM (not active)
Cytochrome P450 2C19
  AC50: inconclusive
Cytochrome P450 2C9
  AC50: inconclusive

## CSc1nc(C2CC2)cc(-c2cccs2)c1C#N
[13]
  CC50: 11.8 µM (active)
Cytochrome P450 2C19; read-out: AC50
  AC50: 1.26 µM (inconclusive)
Cytochrome P450 2C9
  AC50: inconclusive

## CCCc1ccc(C(=O)NNc2cc(Cl)ccc2Cl)cc1
[14]
  AC50: 2.59 µM (active)
[15]
  AC50: 10.1 µM (active)

## O=C(NCC(c1ccco1)N1CCCCC1)c1ccc(COc2ccc(Cl)cc2)cc1 (configuration not stated)
Vero
  CC50: > 25 µM (active)

## CCCc1nnc(NC(=O)CN2C(=O)C3C4C=CC(C4)C3C2=O)s1 (configuration not stated)
Cytochrome P450 2C19; read-out: AC50
  AC50: 17.8 µM (inconclusive)
Cytochrome P450 2C9
  AC50: inconclusive

## Nc1nc(N)c(/C=N/c2ccc(Br)cc2)c(Nc2ccc(Br)cc2)n1
[10]
  EC50: 1.11 µM (active)
Streptokinase A
  EC50: > 150 µM (not active)
Streptococcus
  EC50: 3.09 µM (active)
[16]
  EC50: 71.2 µM (active)
Vero
  CC50: > 25 µM (active)

## Cc1cscc(C)c1=S
[8]
  IC50: > 66 µM (inactive)
[9]
  IC50: > 66 µM (inactive)

## CC(C)CC(=O)/N=C1\SC2CS(=O)(=O)CC2N1Cc1ccccc1 (configuration not stated)
[6]
  EC50: 41.1 µM (active)
[7]
  EC50: 75.3 µM (active)

## Oc1ccc(Cc2nccc3cc(O)c(O)cc23)cc1O [PAPAVEROLINE]
Cytochrome P450 1A2
  AC50: 5.01 µM (inconclusive)
Cytochrome P450 2C9
  AC50: inconclusive

Reference: ChEMBL document CHEMBL1201862, “PubChem BioAssay data set” (2004)
